From US20240189289A1, “INHIBITORS OF EPHB3 SIGNALING” (The Brigham and Women`s Hospital, Inc., priority 2021, published 2024)
Where two headings read alike, the source gives them in different places.

How the values were obtained:
Format in all cases: biochemical
EphB3 = target: T1, EphB3 (Homo sapiens, UniProt P54753); test: EphB3 radiometric kinase activity assay (33P ATP filter binding); details: for remaining activity at 0.01 µM: 10 nM compound, read-out: EphB3 % act 10 nM; for remaining activity at 0.03 µM: 30 nM compound, read-out: EphB3 % act 30 nM; for remaining activity at 0.1 µM: 100 nM compound, read-out: EphB3 % act 100 nM; for remaining activity at 0.3 µM: 300 nM compound, read-out: EphB3 % act 300 nM
T1 sequence (P54753 34-998): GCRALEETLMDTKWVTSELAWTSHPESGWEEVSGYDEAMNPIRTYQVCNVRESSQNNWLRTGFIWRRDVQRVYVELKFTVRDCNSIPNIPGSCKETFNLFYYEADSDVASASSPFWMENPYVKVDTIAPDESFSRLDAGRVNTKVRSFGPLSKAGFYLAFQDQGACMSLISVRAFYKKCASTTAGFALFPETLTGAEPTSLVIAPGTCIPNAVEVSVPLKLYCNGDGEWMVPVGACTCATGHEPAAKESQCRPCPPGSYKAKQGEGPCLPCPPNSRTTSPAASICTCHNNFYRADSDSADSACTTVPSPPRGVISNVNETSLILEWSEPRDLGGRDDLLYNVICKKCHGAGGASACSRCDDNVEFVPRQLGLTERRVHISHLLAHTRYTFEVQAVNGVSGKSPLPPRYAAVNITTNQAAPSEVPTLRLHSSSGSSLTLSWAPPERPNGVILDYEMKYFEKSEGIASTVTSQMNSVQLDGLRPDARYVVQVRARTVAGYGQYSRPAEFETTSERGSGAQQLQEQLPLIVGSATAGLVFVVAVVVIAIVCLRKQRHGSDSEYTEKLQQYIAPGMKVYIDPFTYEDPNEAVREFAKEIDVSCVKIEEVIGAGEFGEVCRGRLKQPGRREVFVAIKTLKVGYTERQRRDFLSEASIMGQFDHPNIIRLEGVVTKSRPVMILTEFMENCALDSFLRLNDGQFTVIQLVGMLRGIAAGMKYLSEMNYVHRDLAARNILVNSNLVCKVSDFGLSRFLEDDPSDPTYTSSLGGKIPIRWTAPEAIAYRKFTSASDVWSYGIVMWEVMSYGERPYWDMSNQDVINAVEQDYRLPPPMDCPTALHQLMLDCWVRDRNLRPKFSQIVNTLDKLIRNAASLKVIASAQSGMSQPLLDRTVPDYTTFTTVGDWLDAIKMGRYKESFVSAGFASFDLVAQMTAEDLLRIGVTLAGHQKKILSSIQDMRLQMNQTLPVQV
Procedure: EphB3 radiometric kinase activity assay. To study the EphB3 kinase activity, a radioactive filter binding assay using 33P ATP was performed as described at the […] International Centre for Kinase profiling. […] The mix was harvested onto P81 filter plates and counts were read on a Topcount NXT.

EphB4 = target: T2, EphB4 (Homo sapiens, UniProt P54760); test: Eph receptor kinase activity assay (radiometric), EphB4; details: for remaining activity at 0.01 µM: 10 nM compound, read-out: EphB4 % act 10 nM; for remaining activity at 0.03 µM: 30 nM compound, read-out: EphB4 % act 30 nM; for remaining activity at 0.1 µM: 100 nM compound, read-out: EphB4 % act 100 nM; for IC50: Table 2, Example 12; for remaining activity at 0.3 µM: 300 nM compound, read-out: EphB4 % act 300 nM
T2 sequence (P54760 16-987): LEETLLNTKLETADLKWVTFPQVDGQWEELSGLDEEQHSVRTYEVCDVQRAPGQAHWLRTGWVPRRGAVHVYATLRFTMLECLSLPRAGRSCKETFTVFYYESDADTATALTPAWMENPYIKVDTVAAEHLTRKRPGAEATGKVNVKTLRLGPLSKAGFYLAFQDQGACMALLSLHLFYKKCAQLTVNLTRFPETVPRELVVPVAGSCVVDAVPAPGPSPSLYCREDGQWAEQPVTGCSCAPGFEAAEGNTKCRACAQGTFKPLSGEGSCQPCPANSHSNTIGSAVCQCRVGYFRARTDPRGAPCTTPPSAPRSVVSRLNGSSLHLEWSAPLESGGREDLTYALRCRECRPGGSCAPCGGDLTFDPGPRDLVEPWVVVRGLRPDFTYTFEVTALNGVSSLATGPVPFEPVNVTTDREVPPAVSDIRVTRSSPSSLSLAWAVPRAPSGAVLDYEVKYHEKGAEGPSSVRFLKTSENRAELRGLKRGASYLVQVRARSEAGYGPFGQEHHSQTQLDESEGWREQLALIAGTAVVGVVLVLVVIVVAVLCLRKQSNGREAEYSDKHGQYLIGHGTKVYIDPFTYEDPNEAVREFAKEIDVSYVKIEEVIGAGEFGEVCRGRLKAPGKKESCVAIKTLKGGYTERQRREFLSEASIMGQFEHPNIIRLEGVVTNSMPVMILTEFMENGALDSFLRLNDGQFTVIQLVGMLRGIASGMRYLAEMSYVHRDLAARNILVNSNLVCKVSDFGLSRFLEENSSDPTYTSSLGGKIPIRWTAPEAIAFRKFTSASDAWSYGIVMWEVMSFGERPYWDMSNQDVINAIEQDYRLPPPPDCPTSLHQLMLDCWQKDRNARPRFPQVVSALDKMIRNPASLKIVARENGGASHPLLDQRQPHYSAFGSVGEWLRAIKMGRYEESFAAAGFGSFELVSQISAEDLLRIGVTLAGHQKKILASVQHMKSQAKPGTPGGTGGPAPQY

EphA2 = EphA2 (Homo sapiens, UniProt P29317); test: Eph receptor kinase activity assay (radiometric), EphA2; details: for remaining activity at 0.01 µM: 10 nM compound, read-out: EphA2 % act 10 nM; for remaining activity at 0.03 µM: 30 nM compound, read-out: EphA2 % act 30 nM; for remaining activity at 0.1 µM: 100 nM compound, read-out: EphA2 % act 100 nM; for IC50: Table 2, Example 12; for remaining activity at 0.3 µM: 300 nM compound, read-out: EphA2 % act 300 nM
Chain of EphA2 (P29317 24-976): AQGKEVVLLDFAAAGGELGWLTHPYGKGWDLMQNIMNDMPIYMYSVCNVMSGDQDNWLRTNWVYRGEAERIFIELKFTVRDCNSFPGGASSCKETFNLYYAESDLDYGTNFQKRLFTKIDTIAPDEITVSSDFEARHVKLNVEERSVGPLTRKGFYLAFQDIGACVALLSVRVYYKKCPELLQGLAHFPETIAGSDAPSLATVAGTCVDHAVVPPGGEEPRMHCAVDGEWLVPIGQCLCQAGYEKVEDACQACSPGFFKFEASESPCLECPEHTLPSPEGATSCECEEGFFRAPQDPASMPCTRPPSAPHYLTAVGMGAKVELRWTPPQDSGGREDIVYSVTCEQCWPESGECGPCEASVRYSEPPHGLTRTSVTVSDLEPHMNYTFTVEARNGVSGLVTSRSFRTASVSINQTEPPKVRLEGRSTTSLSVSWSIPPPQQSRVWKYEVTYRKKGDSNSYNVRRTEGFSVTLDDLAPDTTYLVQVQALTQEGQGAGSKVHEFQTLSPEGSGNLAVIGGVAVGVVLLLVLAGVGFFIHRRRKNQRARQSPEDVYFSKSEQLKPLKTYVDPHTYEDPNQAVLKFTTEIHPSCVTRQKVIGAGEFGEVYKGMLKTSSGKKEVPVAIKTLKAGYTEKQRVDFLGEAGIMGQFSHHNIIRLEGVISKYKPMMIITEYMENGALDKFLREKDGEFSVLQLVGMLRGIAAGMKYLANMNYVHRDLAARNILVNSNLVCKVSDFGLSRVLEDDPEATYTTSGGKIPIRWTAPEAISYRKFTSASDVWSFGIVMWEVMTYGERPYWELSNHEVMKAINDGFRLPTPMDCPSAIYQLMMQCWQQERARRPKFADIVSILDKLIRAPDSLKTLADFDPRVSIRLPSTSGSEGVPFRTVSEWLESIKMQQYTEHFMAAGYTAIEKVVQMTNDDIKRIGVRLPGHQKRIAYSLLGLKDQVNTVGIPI

EphA4 = EphA4 (Homo sapiens, UniProt P54764); test: Eph receptor kinase activity assay (radiometric), EphA4; details: for remaining activity at 0.01 µM: 10 nM compound, read-out: EphA4 % act 10 nM; for remaining activity at 0.03 µM: 30 nM compound, read-out: EphA4 % act 30 nM; for remaining activity at 0.1 µM: 100 nM compound, read-out: EphA4 % act 100 nM; for IC50: Table 2, Example 12; for remaining activity at 0.3 µM: 300 nM compound, read-out: EphA4 % act 300 nM
Chain of EphA4 (P54764 20-986): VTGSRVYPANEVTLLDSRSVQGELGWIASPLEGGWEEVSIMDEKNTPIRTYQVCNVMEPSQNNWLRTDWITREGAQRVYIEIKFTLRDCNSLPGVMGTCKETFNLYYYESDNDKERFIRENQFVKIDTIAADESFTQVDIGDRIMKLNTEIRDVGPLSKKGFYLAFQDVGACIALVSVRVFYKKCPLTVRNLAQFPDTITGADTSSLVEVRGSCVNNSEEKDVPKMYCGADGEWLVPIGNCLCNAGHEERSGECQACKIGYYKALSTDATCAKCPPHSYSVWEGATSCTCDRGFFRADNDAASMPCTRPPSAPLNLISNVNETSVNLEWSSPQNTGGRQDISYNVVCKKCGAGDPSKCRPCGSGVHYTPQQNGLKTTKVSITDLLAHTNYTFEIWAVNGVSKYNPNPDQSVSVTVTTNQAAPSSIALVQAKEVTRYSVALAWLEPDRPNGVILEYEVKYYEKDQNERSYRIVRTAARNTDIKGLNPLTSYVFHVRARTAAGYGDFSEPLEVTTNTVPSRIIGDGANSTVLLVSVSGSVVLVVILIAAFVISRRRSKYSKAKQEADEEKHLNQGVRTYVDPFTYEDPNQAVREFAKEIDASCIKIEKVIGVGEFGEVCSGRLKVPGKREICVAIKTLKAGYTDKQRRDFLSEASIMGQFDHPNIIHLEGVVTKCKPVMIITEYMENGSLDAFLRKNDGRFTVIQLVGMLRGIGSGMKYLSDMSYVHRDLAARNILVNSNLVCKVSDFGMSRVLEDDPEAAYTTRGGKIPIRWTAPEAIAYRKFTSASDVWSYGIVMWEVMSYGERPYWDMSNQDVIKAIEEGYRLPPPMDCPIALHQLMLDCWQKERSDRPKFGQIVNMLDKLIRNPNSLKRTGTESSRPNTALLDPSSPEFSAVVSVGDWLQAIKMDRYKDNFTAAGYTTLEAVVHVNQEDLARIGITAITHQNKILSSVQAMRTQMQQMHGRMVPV

[1] = Table 2, Example 12, read-out: EphB3 (nM) IC50

remaining activity at 0.01 µM (EphB3)	remaining activity at 0.03 µM (EphB3)	remaining activity at 0.1 µM (EphB3)	remaining activity at 0.01 µM (EphB4)	remaining activity at 0.03 µM (EphB4)	remaining activity at 0.1 µM (EphB4)	remaining activity at 0.01 µM (EphA2)	remaining activity at 0.03 µM (EphA2)	remaining activity at 0.1 µM (EphA2)	remaining activity at 0.01 µM (EphA4)	remaining activity at 0.03 µM (EphA4)	remaining activity at 0.1 µM (EphA4)	remaining activity at 0.3 µM (EphB3)	remaining activity at 0.3 µM (EphB4)	remaining activity at 0.3 µM (EphA2)	remaining activity at 0.3 µM (EphA4)	SMILES	further results
80.9%	62%	52.7%	98.8%	101%	82%	67.7%	65.4%	77%	100%	80.2%	74.5%					COc1ccccc1-c1ccc2ncc(C(=O)Nc3ccccc3Cl)n2c1 [compound 101, N-(2-Chlorophenyl)-6-(2-methoxyphenyl)imidazo[1,2-a]pyridine-3-carboxamide]	IC50 (EphB3; [1]): 90 nM; IC50 (EphB4): 675 nM; IC50 (EphA2): 315 nM; IC50 (EphA4): 297 nM
92.4%	92.7%	88.6%	104%	103%	98%	79.9%	69.4%	59.6%	80.4%	74.1%	83.9%					COc1ccc(-c2ccc3ncc(C(=O)Nc4ccccc4Cl)n3c2)cc1 [compound 102, N-(2-Chlorophenyl)-6-(4-methoxyphenyl)imidazo[1,2-a]pyridine-3-carboxamide]	
103%	86.2%	41%	94.7%	106%	132%	76%	75.3%	70.5%	102%	85.1%	85.6%					COc1cccc(-c2ccc3ncc(C(=O)Nc4ccccc4Cl)n3c2)c1 [compound 103, N-(2-Chlorophenyl)-6-(3-methoxyphenyl)imidazo[1,2-a]pyridine-3-carboxamide]	
110%	60.5%	55.9%	93.1%	95.5%	98.4%	78.1%	86%	55.9%	83.8%	62.8%	57.8%					Cc1ccc(-c2ccc3ncc(C(=O)Nc4ccccc4Cl)n3c2)cc1 [compound 104, N-(2-Chlorophenyl)-6-(4-methylphenyl)imidazo[1,2-a]pyridine-3-carboxamide]	
121%	81.1%	63.7%	103%	109%	93.8%	105%	88.1%	65.3%	53.9%	40.9%	35.3%					Cc1cccc(-c2ccc3ncc(C(=O)Nc4ccccc4Cl)n3c2)c1 [compound 105, N-(2-Chlorophenyl)-6-(3-methylphenyl)imidazo[1,2-a]pyridine-3-carboxamide]	
132%	93.8%	63.5%	98.9%	106%	110%	110%	78.9%	72.7%	83.8%	58.3%	55.1%					Cc1ccccc1-c1ccc2ncc(C(=O)Nc3ccccc3Cl)n2c1 [compound 106, N-(2-Chlorophenyl)-6-(2-methylphenyl)imidazo[1,2-a]pyridine-3-carboxamide]	IC50 (EphB3; Example 14, read-out: IC50 (μM), EphB3 receptor kinase inhibitory activity): 130 nM; IC50 (EphB3; [1]): 182 nM; IC50 (EphB4): 675 nM; IC50 (EphA2): 245 nM; IC50 (EphA4): 110 nM
46%		7%	62%		12%	55%		25%	36%		12%	4%	2%	11%	6%	NCc1cccc(-c2ccc3ncc(C(=O)Nc4ccccc4Cl)n3c2)c1 [compound 108, 6-(3-(Aminomethyl)phenyl)-N-(2-chlorophenyl)imidazo[1,2-a]pyridine-3-carboxamide]	
22%		6%	22%		6%	77%		11%	24%		8%	4%	3%	0%	5%	NCc1ccc(-c2ccc3ncc(C(=O)Nc4ccccc4Cl)n3c2)cc1 [compound 109, 6-(4-(Aminomethyl)phenyl)-N-(2-chlorophenyl)imidazo[1,2-a]pyridine-3-carboxamide]	
58%		39%	75%		48%	71%		46%	65%		36%	7%	3%	21%	12%	NC(=O)c1cccc(-c2ccc3ncc(C(=O)Nc4ccccc4Cl)n3c2)c1 [compound 110, 6-(3-Carbamoylphenyl)-N-(2-chlorophenyl)imidazo[1,2-a]pyridine-3-carboxamide]	
